These results are taken from ChEMBL document CHEMBL1629484, “1,2-diamino-ethane-substituted-6,7,8,9-tetrahydro-5H-pyrimido[4,5-d]azepines as TRPV1 antagonists with improved properties” (Bioorg Med Chem Lett, 2010).

≈ marks a conversion by molar mass, not a printed value.

Series [1] has as its target Transient receptor potential cation channel subfamily V member 1 (Rattus norvegicus, UniProt O35433). The series is described as follows: Antagonist activity at rat TRPV1 expressed in HEK293 cells assessed as inhibition of capsaicin-induced intracellular Ca2+ level by FLIPR assay. Type of series: functional, cell-based.
A short description of series [2]: Aqueous equilibrium solubility of compound in simulated intestinal fluid at pH 6.8. Type of series: physicochemical.
Series [3] can be described thus: Aqueous equilibrium solubility of compound in phosphate buffer at pH 2. Type of series: physicochemical.
The target of series [4] is Transient receptor potential cation channel subfamily V member 1 (Homo sapiens, UniProt Q8NER1). Kind of series: Antagonist activity at human TRPV1 expressed in HEK293 cells assessed as inhibition of capsaicin-induced intracellular Ca2+ level by FLIPR assay. Type of series: functional, cell-based.
Chain of Transient receptor potential cation channel subfamily V member 1 (Homo sapiens, UniProt Q8NER1) (Q8NER1 whole entry): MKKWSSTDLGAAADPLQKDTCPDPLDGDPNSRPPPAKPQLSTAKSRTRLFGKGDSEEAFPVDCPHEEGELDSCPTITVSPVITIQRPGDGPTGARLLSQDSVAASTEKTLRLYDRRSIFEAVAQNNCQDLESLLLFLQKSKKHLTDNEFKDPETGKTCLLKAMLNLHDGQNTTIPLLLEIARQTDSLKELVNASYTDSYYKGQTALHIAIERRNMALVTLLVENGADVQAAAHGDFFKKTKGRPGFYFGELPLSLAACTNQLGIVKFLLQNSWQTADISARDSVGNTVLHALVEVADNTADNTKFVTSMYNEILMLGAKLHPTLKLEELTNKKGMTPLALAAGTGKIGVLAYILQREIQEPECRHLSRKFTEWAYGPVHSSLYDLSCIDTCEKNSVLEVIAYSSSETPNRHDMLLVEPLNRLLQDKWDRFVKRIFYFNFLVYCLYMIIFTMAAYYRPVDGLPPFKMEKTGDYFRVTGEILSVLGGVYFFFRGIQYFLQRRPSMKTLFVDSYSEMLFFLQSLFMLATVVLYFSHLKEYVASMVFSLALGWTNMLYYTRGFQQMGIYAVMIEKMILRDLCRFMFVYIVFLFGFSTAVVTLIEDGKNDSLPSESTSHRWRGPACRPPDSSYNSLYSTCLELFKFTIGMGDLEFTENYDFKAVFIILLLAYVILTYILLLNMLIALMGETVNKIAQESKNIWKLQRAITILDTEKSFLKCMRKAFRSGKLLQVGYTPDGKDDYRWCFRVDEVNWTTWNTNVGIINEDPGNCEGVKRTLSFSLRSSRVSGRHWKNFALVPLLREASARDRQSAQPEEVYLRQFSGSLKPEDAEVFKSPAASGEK
Series [5] in a line: Clearance in fasted Sprague-Dawley rat at 0.5 mg/kg, iv and 2 mg/kg, po. It is filed as ADME, organism-based. The settings on record: in vivo.
A short description of series [6]: Volume of distribution at steady state in fasted Sprague-Dawley rat at 0.5 mg/kg, iv and 2 mg/kg, po. Type of series: ADME, organism-based. The settings on record: in vivo, read-out: Vdss.
Series [7] can be described thus: Half life in fasted Sprague-Dawley rat at 0.5 mg/kg, iv and 2 mg/kg, po. Type of series: ADME, organism-based. Conditions: in vivo.

Chain of Transient receptor potential cation channel subfamily V member 1 (Rattus norvegicus, UniProt O35433) (O35433 whole entry): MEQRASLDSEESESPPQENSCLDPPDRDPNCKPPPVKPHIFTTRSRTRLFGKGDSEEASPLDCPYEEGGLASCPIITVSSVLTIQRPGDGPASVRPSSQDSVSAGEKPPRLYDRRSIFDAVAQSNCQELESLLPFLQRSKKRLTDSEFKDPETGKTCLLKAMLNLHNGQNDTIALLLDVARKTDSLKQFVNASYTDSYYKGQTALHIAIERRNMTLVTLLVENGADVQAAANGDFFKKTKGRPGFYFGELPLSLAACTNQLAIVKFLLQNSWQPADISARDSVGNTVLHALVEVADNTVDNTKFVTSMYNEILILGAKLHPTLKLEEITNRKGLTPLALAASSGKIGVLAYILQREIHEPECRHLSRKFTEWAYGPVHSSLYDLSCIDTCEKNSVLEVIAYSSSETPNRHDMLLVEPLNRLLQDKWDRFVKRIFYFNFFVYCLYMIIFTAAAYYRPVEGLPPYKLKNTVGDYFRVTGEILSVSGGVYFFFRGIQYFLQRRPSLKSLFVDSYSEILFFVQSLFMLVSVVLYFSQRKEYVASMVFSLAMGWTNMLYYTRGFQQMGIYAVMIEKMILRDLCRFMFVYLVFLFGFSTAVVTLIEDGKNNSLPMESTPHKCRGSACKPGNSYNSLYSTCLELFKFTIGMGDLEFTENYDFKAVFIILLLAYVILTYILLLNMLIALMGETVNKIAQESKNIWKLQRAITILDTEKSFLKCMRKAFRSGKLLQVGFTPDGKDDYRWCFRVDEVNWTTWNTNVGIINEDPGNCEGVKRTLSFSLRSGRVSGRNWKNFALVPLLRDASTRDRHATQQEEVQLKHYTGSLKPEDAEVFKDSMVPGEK

Turning to `CCC(CC)N1CCN(c2nc3c(c(Nc4ccc(C(F)(F)F)cc4)n2)CCN(c2ncccc2C(F)(F)F)CC3)CC1`, the IC50 in series [1] was determined as 0.185 µM; in series [4], 0.041 µM. Further, the solubility (thermodynamic) in series [2] is 0.109 mg/mL (≈ 179 µM); in series [3], 0.243 mg/mL (≈ 400 µM).

With `CN(C)CCN1CCN(c2nc3c(c(Nc4ccc(C(F)(F)F)cc4)n2)CCN(c2ncccc2C(F)(F)F)CC3)CC1`, the IC50 in series [1] turned out to be 2.6 µM; in series [4], 2 µM. Also, the thermodynamic solubility in series [2] and in series [3] was above 0.243 mg/mL in each case.

`CN1CCCCC1CNc1nc2c(c(Nc3ccc(C(F)(F)F)cc3)n1)CCN(c1ncccc1C(F)(F)F)CC2` (stereo not drawn): the results for the IC50 in series [1] and in series [4] were 2.28 µM and 1.76 µM, respectively. The thermodynamic solubility in series [2] was 0.254 mg/mL (≈ 438 µM); in series [3] it was above 0.277 mg/mL.

Take `CC(C)(C)OC(=O)N1CCCCC1CNc1nc2c(c(Nc3ccc(C(F)(F)F)cc3)n1)CCN(c1ncccc1C(F)(F)F)CC2` (stereo not drawn): the results for the IC50 in series [1] and in series [4] were 0.23 µM and 0.25 µM, respectively. Also, the solubility (thermodynamic) in series [2] and in series [3] was 0.003 mg/mL (≈ 4.51 µM) in each case.

As for `FC(F)(F)c1ccc(Nc2nc(N3CCN(C4CC4)CC3)nc3c2CCN(c2ncccc2C(F)(F)F)CC3)cc1`, the figures for the IC50 in series [1] and in series [4] were 0.045 µM and 0.011 µM, respectively. The solubility (thermodynamic) in series [2] is 0.009 mg/mL (≈ 15.6 µM); in series [3] it was 0.23 mg/mL (≈ 398 µM). The clearance in series [5] was 1.3 L/h/kg. Further, the Vd in series [6] is 1 L/kg. Moreover, in series [7], the half-life was 1.6 h.

For the molecule `FC(F)(F)c1ccc(Nc2nc(NCc3ccccn3)nc3c2CCN(c2ncccc2C(F)(F)F)CC3)cc1`, the IC50 in series [1] amounted to 1.34 µM; in series [4] it was 0.476 µM. The solubility (thermodynamic) in series [2] was 0.001 mg/mL (≈ 1.79 µM); in series [3], 0.224 mg/mL (≈ 400 µM).

Take `CC(C)N1CCN(c2nc3c(c(Nc4ccc(C(F)(F)F)cc4)n2)CCN(c2ncccc2C(F)(F)F)CC3)CC1`: the IC50 in series [1] stood at 0.386 µM. Also, the figures for the solubility (thermodynamic) in series [2] and in series [3] were 0.002 mg/mL (≈ 3.45 µM) and above 0.232 mg/mL, respectively. The molecule further showed a clearance in series [5] of 4.8 L/h/kg. The Vd in series [6] is 5.1 L/kg. Besides, the half-life in series [7] was 1.5 h.

In the case of `CN(C)CCN(C)c1nc2c(c(Nc3ccc(C(F)(F)F)cc3)n1)CCN(c1ncccc1C(F)(F)F)CC2`, the IC50 in series [1] worked out at 4.45 µM; in series [4], 2.67 µM. The thermodynamic solubility in series [2] is 0.21 mg/mL (≈ 379 µM); in series [3], above 0.221 mg/mL.

In the case of `CN1CCN(c2nc3c(c(Nc4ccc(C(F)(F)F)cc4)n2)CCN(c2ncccc2C(F)(F)F)CC3)CC1`, the half-maximal inhibitory concentration (IC50) in series [1] was determined as 0.506 µM. Further, the solubility (thermodynamic) was 0.193 mg/mL (≈ 350 µM) in series [2] and above 0.221 mg/mL in series [3].

With `CCN1CCN(c2nc3c(c(Nc4ccc(C(F)(F)F)cc4)n2)CCN(c2ncccc2C(F)(F)F)CC3)CC1`, the IC50 came to 0.506 µM in series [1] and 0.132 µM in series [4]. Further, the thermodynamic solubility in series [2] is 0.006 mg/mL (≈ 10.6 µM); in series [3], above 0.226 mg/mL.

In the case of `FC(F)(F)c1ccc(Nc2nc(NCC3CCCCN3)nc3c2CCN(c2ncccc2C(F)(F)F)CC3)cc1` (stereo not drawn), the values for the half-maximal inhibitory concentration (IC50) in series [1] and in series [4] were above 5 µM and 0.1 µM, respectively. The figures for the thermodynamic solubility in series [2] and in series [3] were 0.237 mg/mL (≈ 419 µM) and above 0.272 mg/mL, respectively.

As to `FC(F)(F)c1ccc(Nc2nc(N3CCN(C4CCCC4)CC3)nc3c2CCN(c2ncccc2C(F)(F)F)CC3)cc1`, the concentration for half-maximal inhibition (IC50) in series [1] stood at 0.123 µM; in series [4], 0.015 µM. For the same molecule, the solubility (thermodynamic) is 0.011 mg/mL (≈ 18.2 µM) in series [2] and 0.221 mg/mL (≈ 365 µM) in series [3].

`CN(c1nc2c(c(Nc3ccc(C(F)(F)F)cc3)n1)CCN(c1ncccc1C(F)(F)F)CC2)C1CCCNC1` (stereo not drawn): the IC50 in series [1] was 1.54 µM; in series [4] it was 3.6 µM. For the same molecule, the thermodynamic solubility is 0.211 mg/mL (≈ 373 µM) in series [2] and above 0.241 mg/mL in series [3].

Take `CN1CCCC(Nc2nc3c(c(Nc4ccc(C(F)(F)F)cc4)n2)CCN(c2ncccc2C(F)(F)F)CC3)C1` (stereo not drawn): the IC50 was above 5 µM in series [1] and 3.08 µM in series [4]. Besides, the thermodynamic solubility in series [2] was 0.226 mg/mL (≈ 400 µM); in series [3] it was 0.204 mg/mL (≈ 361 µM).

Consider `CC(=O)N(C)C1CCN(c2nc3c(c(Nc4ccc(C(F)(F)F)cc4)n2)CCN(c2ncccc2C(F)(F)F)CC3)C1` (stereo not drawn), for which the IC50 in series [1] was 0.46 µM; in series [4] it was 0.062 µM. The values for the thermodynamic solubility in series [2] and in series [3] were 0.002 mg/mL (≈ 3.37 µM) and 0.021 mg/mL (≈ 35.4 µM), respectively.

In the case of `FC(F)(F)c1ccc(Nc2nc(NC3CCCNC3)nc3c2CCN(c2ncccc2C(F)(F)F)CC3)cc1` (stereo not drawn), the IC50 in series [1] and in series [4] was above 5 µM in each case. The solubility (thermodynamic) is 0.203 mg/mL (≈ 368 µM) in series [2] and above 0.235 mg/mL in series [3].

What is called IC50 is the point on the concentration scale where inhibition reaches its midpoint. As a reminder, the solubility (thermodynamic) is the concentration in solution at equilibrium with solid. For orientation: half-life means the time in which the quantity being followed falls by half.
